Source: patent publication US20250064954A1, “STEROIDS AND ANTIBODY-CONJUGATES THEREOF” (REGENERON PHARMACEUTICALS, INC., priority 2018, published 2025)

Columns and labels:
[1] = Plasma stability in human plasma; type: in vitro ADME; settings: 37° C.; for Percent Remaining (%) 1 h / Percent Remaining (%) 8 h / Percent Remaining (%) 24 h / Percent Remaining (%) […]: BQL: Below Quantitation Limit
Procedure: Plasma stability can be measured according to the following protocol.
Preheated 0.05 M sodium phosphate and 0.07 M NaCl buffer, pH 7.4: 14.505 g/L Na2HPO4_12H2O, 1.483 g/L NaH2PO4_2H2O and 4.095 g/L NaCl were dissolved in deionized water. The basic solution was then titrated with the phosphoric acid to pH 7.40 and stored refrigerated for up to 7 days. pH was checked on the day of experiment and adjusted if outside specification of 7.4+/−0.1.
Plasma preparation: frozen plasma were thawed by placing at 37° C. The plasma was centrifuged at 3,000 rpm for 8 minutes to remove clots, pipetted and the supernatant was pooled as the plasma to be used in the experiment. The pH of the plasma was checked and recorded and only used within the range of pH 7.4 to pH 8. If higher than pH 8, the plasma was discarded. The initial pH of the plasma was not adjusted to pH 7.4 with acid or by bubbling with CO2. By using a 5% CO2 incubator and PBS buffer, a pH of 7.4 was reached after a 4 hour equilibrium dialysis time. The plasma was put on ice until used.
Test compounds and reference compounds spiking solution. 0.5 mM test compounds spiking solution A: 10 μL of 10 mM test compounds stock solution was added to 190 μL DMSO. 0.02 mM spiking solution B: 40 μL of spiking solution A were added to 960 μL of 0.05 mM Sodium phosphate buffer with 0.5% BSA.
The plasma and spiking solution B were pre-warmed at 37° C. for 5 min. 10 μL of pre-warmed spiking solution B was added into the wells designated for all the time points (0, 0.25, 1, 8, 24 h). For 0-min, 400 μL of ACN containing 1S was added to the wells of 0-min plate and then 90 μL of plasma was added. 90 μL of pre-warmed plasma was added into the wells designated for the time points (0.25, 1, 8, 24 h), and start timing. At 0.25, 1, 8, 24 h, 400 μL of ACN containing IS was added to the wells of corresponding plates, respectively, to stop the reaction. After quenching, the plates were shaken on a vibrator (IKA, MTS 2/4) for 10 min (600 rpm/min) and then centrifuged at 5594 g for 15 min (Thermo Multifuge×3R). 50 μL of the supernatant from each well was transferred into a 96-well sample plate containing 50 μL of ultra pure water (Millipore, ZMQS50F01) for LC/MS analysis.

[2] = target: T1, Glucocorticoid Receptor (GR) (Homo sapiens, UniProt P04150); experiment: Cell based GR responsive luciferase reporter assay in HEK293/UASLuc/pBIND-GR cells; settings: ratio of highest RLU on the dose response curve to RLU in untreated wells, 48 hours
T1 construct: host or cells: HEK293 stably expressing human full length PRLR
T1 sequence (P04150 524-758 limits assumed): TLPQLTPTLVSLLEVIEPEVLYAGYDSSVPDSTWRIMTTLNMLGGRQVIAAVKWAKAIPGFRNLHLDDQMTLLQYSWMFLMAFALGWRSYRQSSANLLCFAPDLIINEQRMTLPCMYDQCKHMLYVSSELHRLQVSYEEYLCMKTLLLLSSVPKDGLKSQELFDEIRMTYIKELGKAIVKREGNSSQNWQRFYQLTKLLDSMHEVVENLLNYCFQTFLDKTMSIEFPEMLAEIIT

[3] = target: T1, Glucocorticoid Receptor (GR); experiment: as above; settings: for EC50: HEK293/UASLuc/pBIND-GR cells, 48 hours; for EC50 values after spacer attachment relative to parent steroid: comparison
Text: A cell-based GR responsive luciferase reporter assay was used to test the GR agonist activity of compounds described herein. In this assay, the following materials were used.
To generate the assay cell line, HEK293 cells were co-transfected with the pBind-GR (Promega, Cat #E158A) and pGL4.35 [Luc2P/9xGAL4UAS/Hygro] (Promega, Cat #E137A) vectors. The pBind-GR vector expresses a fusion protein consisting of the yeast Gal4DNA-binding domain and the GR ligand binding domain, that can bind to the Gal4 upstream activation sequence (UAS) in the luciferase expression vector and induce luciferase expression following GR agonist binding. The cells were selected for at least 2 weeks in G418+ hygromycin. The resulting cell line is referred to as HEK293/UASLuc/pBIND-GR.
Three-fold serial dilutions of test compounds were prepared in 100% DMSO, transferred to fresh assay media, and added to the cells. […] The last well in the plate served as blank control containing only the assay media and 0.2% DMSO (untreated well) and was plotted as a continuation of the 3-fold serial dilution.
Forty-eight hours later, luciferase activity was determined after the addition of One-Glo™ reagent (Promega, Cat #E6130). Relative light units (RLUs) were measured on an Envision luminometer (PerkinElmer) and EC50 values were determined using a four-parameter logistic equation over a 10-point dose response curve (GraphPad Prism). The signal to noise (S/N) was determined by taking the ratio of the highest RLU on the dose response curve to the RLU in the untreated wells.

[4] = Solubility of payloads and linker-payloads; settings: aqueous DMSO (20%)

SMILES: CCCC1O[C@@H]2C[C@H]3[C@@H]4CCC5=CC(=O)C=C[C@]5(C)[C@H]4[C@@H](O)C[C@]3(C)[C@]2(C(=O)COCNC(=O)CN)O1 (stereo partly drawn) [Compound 103a, 2-Amino-N-({2-[(1S,2S,4R,8S,9S,11S,12S,13R)-11-hydroxy-9,13-dimethyl-16-oxo-6-propyl-5,7-dioxapentacyclo[10.8.0.0^2,^9.0^4,^8.0^13,^18]icosa-14,17-dien-8-yl]-2-oxoethoxy}methyl)acetamide]
- half-life at 2 µM [1]: 16.8 h
- Percent Remaining (%) 0 h [1]: 100.00%
- Percent Remaining (%) 1 h [1]: 96.48%
- Percent Remaining (%) 8 h [1]: 78.87%
- Percent Remaining (%) 24 h [1]: 38.03%
- Percent Remaining (%) […] [1]: 107.04%
- S/N [2]: 14.6
- EC50 [3]: 0.484 nM
- EC50 values after spacer attachment relative to parent steroid [3]: comparable to 1a
- solubility (physchem): < 20 µg/mL

SMILES: CCCC1O[C@@H]2C[C@H]3[C@@H]4C[C@H](F)C5=CC(=O)C=C[C@]5(C)[C@@]4(F)[C@@H](O)C[C@]3(C)[C@]2(C(=O)COCNC(=O)CN)O1 (stereo partly drawn) [Compound 103b, 2-Amino-N-({2-[(1S,2S,4R,8S,9S,11S,12R,13S,19S)-12,19-difluoro-11-hydroxy-9,13-dimethyl-16-oxo-6-propyl-5,7-dioxapentacyclo[10.8.0.0^2,^9.0^4,^8.0^13,^18]icosa-14,17-dien-8-yl]-2-oxoethoxy}methyl)acetamide]
- S/N [2]: 16.6
- EC50 values after spacer attachment relative to parent steroid [3]: comparable to 100
- solubility (physchem): < 20 µg/mL

SMILES: CCN(CC)CCOC(=O)c1ccc(N)cc1 [Procaine]
- half-life at 2 µM [1]: < 0.25 h
- Percent Remaining (%) 0 h [1]: 100.00%
- Percent Remaining (%) 1 h [1]: BQL
- Percent Remaining (%) 8 h [1]: BQL
- Percent Remaining (%) 24 h [1]: BQL
- Percent Remaining (%) […] [1]: BQL

SMILES: CCCC1O[C@@H]2C[C@H]3[C@@H]4C[C@H](F)C5=CC(=O)C=C[C@]5(C)[C@@]4(F)[C@@H](O)C[C@]3(C)[C@]2(C(=O)COCNC(=O)CNC(=O)OCc2ccc(NC(=O)[C@H](CCCNC(N)=O)NC(=O)[C@@H](NC(=O)CCOCCOCCOCCOCCNC(=O)CCC(=O)N3Cc4ccccc4C#Cc4ccccc43)C(C)C)cc2)O1 (some centres unmarked) [LP10]
- solubility [4]: < 20 µg/mL

SMILES: CCCC1O[C@@H]2C[C@H]3[C@@H]4C[C@H](F)C5=CC(=O)C=C[C@]5(C)[C@@]4(F)[C@@H](O)C[C@]3(C)[C@]2(C(=O)COC(=O)c2ccc(CN)cc2)O1 (some centres unmarked) [Compound 105a]
- fold less potent than 100 ([3]; EC50 comparison after spacer attachment to 100, text): 2.7 fold

SMILES: CCCC1O[C@@H]2C[C@H]3[C@@H]4CCC5=CC(=O)C=C[C@]5(C)[C@H]4[C@@H](O)C[C@]3(C)[C@]2(C(=O)COCNC(=O)CNC(=O)OCc2ccc(NC(=O)[C@H](CCCNC(N)=O)NC(=O)[C@@H](NC(=O)CCOCCOCCOCCOCCNC(=O)CCC(=O)N3Cc4ccccc4C#Cc4ccccc43)C(C)C)cc2)O1 (some centres unmarked) [LP9]
- solubility [4]: < 20 µg/mL

SMILES: CCCC1O[C@@H]2C[C@H]3[C@@H]4C[C@H](F)C5=CC(=O)C=C[C@]5(C)[C@@]4(F)[C@@H](O)C[C@]3(C)[C@]2(C(=O)CO)O1 (stereo in doubt) [Compound 100, (1S,2S,4R,8S,9S,11S,12R,13S,19S)-12,19-Difluoro-11-hydroxy-8-(2-hydroxyacetyl)-9,13-dimethyl-6-propyl-5,7-dioxapentacyclo[10.8.0.0^2,^9.0^4,^8.0^13,^18]icosa-14,17-dien-16-one]
- S/N [2]: 14.5
- fold more potent than 1a (budesonide) ([3]; EC50 comparison): 5.6 fold
- fold more potent than Dexamethasone ([3]; EC50 comparison): 5.9 fold
- EC50 [3]: 0.0547 nM
